Experimental data published in patent US10294202B2, “Pyrrolidinones as herbicides” (FMC Corporation, priority 2013, dated 2019).

Experiments:
[1] = test system: chickweed; test: Test D pre-/postemergence herbicide test; assay type: in vivo, Stellaria media; conditions: for Plant response rating: Chickweed, scale 0 to 100; for Plant response rating, Chickweed: scale 0 to 100 (0 no effect, 100 complete control)
From the text: Seeds of plant species selected from bluegrass (annual bluegrass, Poa annua), blackgrass (Alopecurus myosuroides), canarygrass (littleseed canarygrass, Phalaris minor), chickweed (common chickweed, Stellaria media), galium (catchweed bedstraw, Galium aparine), bromegrass, downy (downy bromegrass, Bromus tectorum), field poppy (Papaver rhoeas), field violet (Viola arvensis), foxtail, green (green foxtail, Setaria viridis), deadnettle (henbit deadnettle, Lamium amplexicaule), ryegrass, Italian (Italian ryegrass, Lolium multiflorum), kochia (Kochia scoparia), lambsquarters (Chenopodium album), oilseed rape (Brassica napus), pigweed (Amaranthus retroflexus), chamomile (scentless chamomile, Matricaria inodora), Russian thistle (Salsola kali), speedwell (bird's-eye speedwell, Veronica persica), barley, spring (spring barley, Hordeum vulgare), wheat, spring (spring wheat, Triticum aestivum), buckwheat, wild (wild buckwheat, Polygonum convolvulus), mustard, wild (wild mustard, Sinapis arvensis), oat, wild (wild oat, Avena fatua), radish, wild (wild radish, Raphanus raphanistrum), […]), barley, winter (winter barley, Hordeum vulgare), and wheat, winter (winter wheat, Triticum aestivum) were planted into a silt loam soil and treated preemergence with test chemicals formulated in a non-phytotoxic solvent mixture which included a surfactant. At the same time, these species were planted in pots containing Redi-Earth® planting medium (Scotts Company, 14111 Scottslawn Road, Marysville, Ohio 43041) comprising spaghnum peat moss, vermiculite, wetting agent and starter nutrients and treated with postemergence applications of the test chemicals formulated in the same manner. Plants ranged in height from 2 to 18 cm (1- to 4-leaf stage). Treated plants and controls were maintained in a controlled growth environment for 7 to 21 days after which time all species were compared to controls and visually evaluated. Plant response ratings, summarized in Table D, are based on a scale of 0 to 100 where 0 is no effect and 100 is complete control. A dash (-) response means no test result.

[2] = test system: cupgrass, woolly; test: Test C pre-/postemergence herbicide test; assay type: in vivo, Eriochloa villosa
From the text: Seeds of plant species selected from blackgrass (Alopecurus myosuroides), ryegrass, Italian (Italian ryegrass, Lolium multiflorum), wheat (winter wheat, Triticum aestivum), galium (catchweed bedstraw, Galium aparine), corn (Zea mays), crabgrass, large (large crabgrass, Digitaria sanguinalis), foxtail, giant (giant foxtail, Setaria faberii), johnsongrass (Sorghum halepense), lambsquarters (Chenopodium album), morningglory (Ipomoea coccinea), nutsedge, yellow (yellow nutsedge, Cyperus esculentus), pigweed (Amaranthus retroflexus), ragweed (common ragweed, Ambrosia elatior), soybean (Glycine max), barnyardgrass (Echinochloa crus-galli), oilseed rape (Brassica napus), waterhemp (common waterhemp, Amaranthus rudis), kochia (Kochia scoparia), oat, wild (wild oat, Avena fatua), surinam grass (Brachiaria decumbens), foxtail, green (green foxtail, Setaria viridis), goosegrass (Eleusine indica), bromegrass, downy (downy bromegrass, Bromus tectorum), nightshade (eastern black nightshade, Solanum ptycanthum), cocklebur (common cocklebur, Xanthium strumarium), cupgrass, woolly (woolly cupgrass, Eriochloa villosa), bermudagrass (Cynodon dactylon), sunflower, (common oilseed sunflower, Helianthus annuus), Russian thistle (Salsola kali) and velvetleaf (Abutilon theophrasti) were planted into a blend of loam soil and sand and treated preemergence with test chemicals formulated in a non-phytotoxic solvent mixture which included a surfactant. At the same time, plants selected from these crop and weed species and also barley (winter barley, Hordeum vulgare), […]), chickweed (common chickweed, Stellaria media), deadnettle (henbit deadnettle, Lamium amplexicaule), and canarygrass (littleseed canarygrass, Phalaris minor) were planted in pots containing Redi-Earth® planting medium (Scotts Company, 14111 Scottslawn Road, Marysville, Ohio 43041) comprising spaghnum peat moss, vermiculite, wetting agent and starter nutrients and treated with postemergence applications of test chemicals formulated in the same manner. Plants ranged in height from 2 to 18 cm (1- to 4-leaf stage) for postemergence treatments. Treated plants and controls were maintained in a greenhouse for 13 to 15 days, after which time all species were compared to controls and visually evaluated. Plant response ratings, summarized in Table C, are based on a scale of 0 to 100 where 0 is no effect and 100 is complete control. A dash (-) response means no test result.

[3] = Preemergence, 62 g ai/ha, scale 0 to 100
[4] = Preemergence, 125 g ai/ha, scale 0 to 100 (0 no effect, 100 complete control)
[5] = Preemergence, 31 g ai/ha, scale 0 to 100 (0 no effect, 100 complete control)
[6] = Preemergence, 250 g ai/ha, scale 0 to 100 (0 no effect, 100 complete control)
[7] = Postemergence, 31 g ai/ha, scale 0 (no effect) to 100 (complete control)
[8] = Postemergence, 62 g ai/ha, scale 0 to 100 (0 no effect, 100 complete control)
[9] = Postemergence, 125 g ai/ha, scale 0 to 100 (0 no effect, 100 complete control)
[10] = Postemergence, 250 g ai/ha, scale 0 to 100 (0 no effect, 100 complete control)

| SMILES | Plant response rating ([1]; Postemergence, 16 g ai/ha) | Plant response rating ([1]; Postemergence, 31 g ai/ha) | Plant response rating ([1]; Postemergence, 62 g ai/ha) | Plant response rating ([1]; Postemergence, 125 g ai/ha) | Plant response rating ([1]; Postemergence, 250 g ai/ha) | Plant response rating, Chickweed ([1]; Preemergence, 62 g ai/ha) | Plant response rating, Chickweed ([1]; Preemergence, 31 g ai/ha) | Plant response rating, Cupgrass, Woolly [2, 3] | Plant response rating, Cupgrass, Woolly [2, 4] | Cupgrass, Woolly plant response rating [2, 5] | Plant response rating, Cupgrass, Woolly [2, 7] | Plant response rating, Cupgrass, Woolly [2, 8] | Plant response rating, Cupgrass, Woolly [2, 9] | other results |
| --- | --- | --- | --- | --- | --- | --- | --- | --- | --- | --- | --- | --- | --- | --- |
| O=C1NCC(c2ccc(F)c(F)c2)C1C(=O)Nc1ccccc1C(F)(F)F (racemic) [Compound 6] | 0 | 0 | 0 | 10 | 30 |  |  |  |  |  |  |  |  |  |
| O=C1NCC(c2ccc(F)c(C(F)(F)F)c2)C1C(=O)Nc1cccc(F)c1F (racemic) [Compound 77] |  |  |  |  |  | 90 | 75 |  |  |  |  |  |  | Plant response rating ([1]; Preemergence, 125 g ai/ha): 100; Plant response rating ([1]; Preemergence, 250 g ai/ha): 100 |
| O=C1NCCC1C(=O)N(c1ccc(F)c(F)c1)c1ccccc1F (stereo not shown) [Compound 5, N-(3,4-difluorophenyl)-N-(2-fluorophenyl)-2-oxo-3-pyrrolidinecarboxamide] |  |  |  |  |  |  |  | 85 | 90 | 80 |  |  |  | Plant response rating, Cupgrass, Woolly [2, 6]: 95 |
| O=C1NCC(c2cc(F)c(F)c(F)c2)C1C(=O)Nc1cccc(F)c1F (stereo not shown) [Compound 48] |  |  |  |  |  |  |  | 70 | 85 | 70 | 0 | 5 | 5 | Plant response rating, Cupgrass, Woolly ([2]; Postemergence, 16 g ai/ha, scale 0 to 100 (0 no effect, 100 complete control)): 0; Plant response rating, Cupgrass, Woolly ([2]; Preemergence, 16 g ai/ha, scale 0 to 100): 25 |
| O=C1NCC(c2cc(F)c(F)cc2F)C1C(=O)Nc1cccc(F)c1F (stereo not shown) [Compound 50] | 10 | 15 | 20 | 15 |  | 0 | 0 |  |  |  | 0 | 0 | 0 | Plant response rating, Chickweed ([1]; Preemergence, 16 g ai/ha): 0; Plant response rating ([1]; Preemergence, 125 g ai/ha): 0; Plant response rating, Cupgrass, Woolly [2, 10]: 10 |
| O=C1NCC(c2ccc(Cl)c(F)c2)C1C(=O)Nc1cccc(F)c1F (stereo not shown) [Compound 52] | 0 | 0 | 10 | 15 | 25 |  |  | 70 | 75 | 40 | 0 | 5 | 5 | Plant response rating, Cupgrass, Woolly [2, 10]: 10; Plant response rating, Cupgrass, Woolly [2, 6]: 85 |
| O=C1NCC(c2ccc(F)c(Cl)c2)C1C(=O)Nc1ccccc1F (stereo not shown) [Compound 60] |  |  |  |  |  |  |  | 75 | 75 | 55 | 0 | 0 | 5 |  |
| O=C1NCC(c2cccc(OC(F)(F)F)c2)C1C(=O)Nc1ccccc1F (stereo not shown) [Compound 69] |  |  |  |  |  |  |  | 85 | 85 |  |  |  |  | Cupgrass, Woolly plant response rating ([2]; Preemergence, 31 g ai/ha, scale 0 to 100, 0 is no effect and 100 is complete control): 75; Plant response rating (scale of 0 to 100), Cupgrass, Woolly ([2]; Preemergence, 250 g ai/ha): 90 |
| O=C1NCC(c2ccc(C(F)(F)F)cc2)C1C(=O)Nc1ccccc1F (stereo not shown) [Compound 231] |  | 25 | 80 | 80 | 80 | 85 | 75 |  |  |  |  |  |  | Plant response rating, Chickweed ([1]; Preemergence, 125 g ai/ha): 95; Plant response rating ([1]; Preemergence, 250 g ai/ha): 90 |
